Assay results reported in PubChem BioAssay (NCI).
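Following 48 hours of exposure in 96-well plates, responses at five concentrations were used to interpolate endpoints linearly. TGI denotes the concentration required for complete inhibition of growth.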

The compounds below were run on HL-60(TB) leukemia (assay: inhibition of tumour cell growth, NCI panel, 48 h).

Compound | TGI [µM]
Nc1ncnc2c1ncn2C1OC(CSC(F)F)C(O)C1O (stereo unspecified) | > 100
CC(C)[C@@H](C)CC[C@@H](C)C1CC=C2[C@@H]3CCC4C[C@@H](O[Si](C)(C)C(C)(C)C)CC[C@]4(C)C3CC[C@@]21C (stereo partly specified) | > 100
COc1ccc(SS(=O)(=O)c2ccc(OC)cc2)cc1 | 7.81
O=C(Nc1nc(=S)[nH][nH]1)C(=O)C1C(=O)Nc2ccccc2S1=O (stereo unspecified) | > 100
Cn1ccnc1CCc1ccc(Cl)cc1Cl | > 100

What follows are compounds tested on HOP-18 NSCLC (assay: inhibition of tumour cell growth, NCI panel, 48 h).

Compound | TGI [µM]
Nc1ncnc2c1ncn2C1OC(CSC(F)F)C(O)C1O (stereo unspecified) | > 100
CC(C)[C@@H](C)CC[C@@H](C)C1CC=C2[C@@H]3CCC4C[C@@H](O[Si](C)(C)C(C)(C)C)CC[C@]4(C)C3CC[C@@]21C (stereo partly specified) | > 100
COc1ccc(SS(=O)(=O)c2ccc(OC)cc2)cc1 | 48.3
O=C(Nc1nc(=S)[nH][nH]1)C(=O)C1C(=O)Nc2ccccc2S1=O (stereo unspecified) | > 100
Cn1ccnc1CCc1ccc(Cl)cc1Cl | > 100

These compounds were tested on HOP-62 NSCLC (assay: inhibition of tumour cell growth, NCI panel, 48 h).

Compound | TGI [µM]
Nc1ncnc2c1ncn2C1OC(CSC(F)F)C(O)C1O (stereo unspecified) | > 100
CC(C)[C@@H](C)CC[C@@H](C)C1CC=C2[C@@H]3CCC4C[C@@H](O[Si](C)(C)C(C)(C)C)CC[C@]4(C)C3CC[C@@]21C (stereo partly specified) | > 100
COc1ccc(SS(=O)(=O)c2ccc(OC)cc2)cc1 | 50.9
O=C(Nc1nc(=S)[nH][nH]1)C(=O)C1C(=O)Nc2ccccc2S1=O (stereo unspecified) | > 100
Cn1ccnc1CCc1ccc(Cl)cc1Cl | > 100

The compounds below were run on HOP-92 NSCLC (assay: inhibition of tumour cell growth, NCI panel, 48 h).

Compound | TGI [µM]
Nc1ncnc2c1ncn2C1OC(CSC(F)F)C(O)C1O (stereo unspecified) | > 100
COc1ccc(SS(=O)(=O)c2ccc(OC)cc2)cc1 | 60.4
O=C(Nc1nc(=S)[nH][nH]1)C(=O)C1C(=O)Nc2ccccc2S1=O (stereo unspecified) | > 100
Cn1ccnc1CCc1ccc(Cl)cc1Cl | > 100

Each compound was assayed on HT29 colon (assay: inhibition of tumour cell growth, NCI panel, 48 h).

Compound | TGI [µM]
Nc1ncnc2c1ncn2C1OC(CSC(F)F)C(O)C1O (stereo unspecified) | > 100
COc1ccc(SS(=O)(=O)c2ccc(OC)cc2)cc1 | 64.1
O=C(Nc1nc(=S)[nH][nH]1)C(=O)C1C(=O)Nc2ccccc2S1=O (stereo unspecified) | > 100
Cn1ccnc1CCc1ccc(Cl)cc1Cl | > 100

The compounds below were run on IGROV1 ovarian (assay: inhibition of tumour cell growth, NCI panel, 48 h).

Compound | TGI [µM]
Nc1ncnc2c1ncn2C1OC(CSC(F)F)C(O)C1O (stereo unspecified) | > 100
CC(C)[C@@H](C)CC[C@@H](C)C1CC=C2[C@@H]3CCC4C[C@@H](O[Si](C)(C)C(C)(C)C)CC[C@]4(C)C3CC[C@@]21C (stereo partly specified) | > 100
COc1ccc(SS(=O)(=O)c2ccc(OC)cc2)cc1 | 24.4
O=C(Nc1nc(=S)[nH][nH]1)C(=O)C1C(=O)Nc2ccccc2S1=O (stereo unspecified) | > 100
Cn1ccnc1CCc1ccc(Cl)cc1Cl | > 100

The compounds below were run on K-562 leukemia (assay: inhibition of tumour cell growth, NCI panel, 48 h).

Compound | TGI [µM]
Nc1ncnc2c1ncn2C1OC(CSC(F)F)C(O)C1O (stereo unspecified) | > 100
CC(C)[C@@H](C)CC[C@@H](C)C1CC=C2[C@@H]3CCC4C[C@@H](O[Si](C)(C)C(C)(C)C)CC[C@]4(C)C3CC[C@@]21C (stereo partly specified) | > 100
COc1ccc(SS(=O)(=O)c2ccc(OC)cc2)cc1 | 47
Cn1ccnc1CCc1ccc(Cl)cc1Cl | > 100

The compounds below were run on KM12 colon (assay: inhibition of tumour cell growth, NCI panel, 48 h).

Compound | TGI [µM]
Nc1ncnc2c1ncn2C1OC(CSC(F)F)C(O)C1O (stereo unspecified) | > 100
CC(C)[C@@H](C)CC[C@@H](C)C1CC=C2[C@@H]3CCC4C[C@@H](O[Si](C)(C)C(C)(C)C)CC[C@]4(C)C3CC[C@@]21C (stereo partly specified) | > 100
COc1ccc(SS(=O)(=O)c2ccc(OC)cc2)cc1 | 30.7
O=C(Nc1nc(=S)[nH][nH]1)C(=O)C1C(=O)Nc2ccccc2S1=O (stereo unspecified) | > 100
Cn1ccnc1CCc1ccc(Cl)cc1Cl | > 100

The compounds below were run on KM20L2 colon (assay: inhibition of tumour cell growth, NCI panel, 48 h).

Compound | TGI [µM]
Nc1ncnc2c1ncn2C1OC(CSC(F)F)C(O)C1O (stereo unspecified) | > 100
CC(C)[C@@H](C)CC[C@@H](C)C1CC=C2[C@@H]3CCC4C[C@@H](O[Si](C)(C)C(C)(C)C)CC[C@]4(C)C3CC[C@@]21C (stereo partly specified) | > 100
COc1ccc(SS(=O)(=O)c2ccc(OC)cc2)cc1 | 38
O=C(Nc1nc(=S)[nH][nH]1)C(=O)C1C(=O)Nc2ccccc2S1=O (stereo unspecified) | > 100
Cn1ccnc1CCc1ccc(Cl)cc1Cl | > 100

The compounds below were run on LOX IMVI melanoma (assay: inhibition of tumour cell growth, NCI panel, 48 h).

Compound | TGI [µM]
Nc1ncnc2c1ncn2C1OC(CSC(F)F)C(O)C1O (stereo unspecified) | > 100
COc1ccc(SS(=O)(=O)c2ccc(OC)cc2)cc1 | 31.8
O=C(Nc1nc(=S)[nH][nH]1)C(=O)C1C(=O)Nc2ccccc2S1=O (stereo unspecified) | > 100
Cn1ccnc1CCc1ccc(Cl)cc1Cl | > 100

The compounds below were run on LXFL 529 NSCLC (assay: inhibition of tumour cell growth, NCI panel, 48 h).

Compound | TGI [µM]
Nc1ncnc2c1ncn2C1OC(CSC(F)F)C(O)C1O (stereo unspecified) | > 100
CC(C)[C@@H](C)CC[C@@H](C)C1CC=C2[C@@H]3CCC4C[C@@H](O[Si](C)(C)C(C)(C)C)CC[C@]4(C)C3CC[C@@]21C (stereo partly specified) | > 100
COc1ccc(SS(=O)(=O)c2ccc(OC)cc2)cc1 | 34.4
O=C(Nc1nc(=S)[nH][nH]1)C(=O)C1C(=O)Nc2ccccc2S1=O (stereo unspecified) | > 100
Cn1ccnc1CCc1ccc(Cl)cc1Cl | > 100

Each compound was assayed on M14 melanoma (assay: inhibition of tumour cell growth, NCI panel, 48 h).

Compound | TGI [µM]
Nc1ncnc2c1ncn2C1OC(CSC(F)F)C(O)C1O (stereo unspecified) | > 100
CC(C)[C@@H](C)CC[C@@H](C)C1CC=C2[C@@H]3CCC4C[C@@H](O[Si](C)(C)C(C)(C)C)CC[C@]4(C)C3CC[C@@]21C (stereo partly specified) | > 100
COc1ccc(SS(=O)(=O)c2ccc(OC)cc2)cc1 | 41.6
O=C(Nc1nc(=S)[nH][nH]1)C(=O)C1C(=O)Nc2ccccc2S1=O (stereo unspecified) | > 100
Cn1ccnc1CCc1ccc(Cl)cc1Cl | > 100

Each compound was assayed on M19-MEL melanoma (assay: inhibition of tumour cell growth, NCI panel, 48 h).

Compound | TGI [µM]
CC(C)[C@@H](C)CC[C@@H](C)C1CC=C2[C@@H]3CCC4C[C@@H](O[Si](C)(C)C(C)(C)C)CC[C@]4(C)C3CC[C@@]21C (stereo partly specified) | > 100
COc1ccc(SS(=O)(=O)c2ccc(OC)cc2)cc1 | 46.4
O=C(Nc1nc(=S)[nH][nH]1)C(=O)C1C(=O)Nc2ccccc2S1=O (stereo unspecified) | > 100
Cn1ccnc1CCc1ccc(Cl)cc1Cl | > 100

The compounds below were run on MALME-3M melanoma (assay: inhibition of tumour cell growth, NCI panel, 48 h).

Compound | TGI [µM]
Nc1ncnc2c1ncn2C1OC(CSC(F)F)C(O)C1O (stereo unspecified) | > 100
CC(C)[C@@H](C)CC[C@@H](C)C1CC=C2[C@@H]3CCC4C[C@@H](O[Si](C)(C)C(C)(C)C)CC[C@]4(C)C3CC[C@@]21C (stereo partly specified) | > 100
COc1ccc(SS(=O)(=O)c2ccc(OC)cc2)cc1 | 80.4
O=C(Nc1nc(=S)[nH][nH]1)C(=O)C1C(=O)Nc2ccccc2S1=O (stereo unspecified) | > 100
Cn1ccnc1CCc1ccc(Cl)cc1Cl | > 100

Each compound was assayed on MOLT-4 leukemia (assay: inhibition of tumour cell growth, NCI panel, 48 h).

Compound | TGI [µM]
Nc1ncnc2c1ncn2C1OC(CSC(F)F)C(O)C1O (stereo unspecified) | > 100
